# System: MV-4-11 cells
# Assay: Gene expression microarray analysis (Affymetrix PrimeView) and GSEA
# Type: cell-based, human
# Set-up: RFU PODN (11730768_x_at) / Fold change /veh PODN (11730768_x_at) / RFU LINC00158 (11744669_a_at) / Fold change /veh LINC00158 (11744669_a_at) / RFU DUSP10 (11751237_a_at) / Fold change /veh DUSP10 (11751237_a_at) / RFU ID3 (11757404_x_at) / Fold change /veh ID3 (11757404_x_at) / RFU PLEKHG5 (11737974_s_at) / Fold change /veh PLEKHG5 (11737974_s_at) / RFU LRRC4B (11730491_at) / Fold change /veh LRRC4B (11730491_at) / RFU GIMAP4 (11747438_a_at) / Fold change /veh GIMAP4 (11747438_a_at) / RFU KRT8 (11758183_x_at) / Fold change /veh KRT8 (11758183_x_at) / RFU CNN1 (11734310_a_at) / Fold change /veh CNN1 (11734310_a_at) / RFU VPS37D (11726825_at) / Fold change /veh VPS37D (11726825_at) / RFU C10orf10 (11716522_x_at) / Fold change /veh C10orf10 (11716522_x_at) / RFU KIR2DL2 /// KIR2DL4 /// KIR2DL5A /// KIR2DL5B /// KIR2DS1 /// KIR2DS2 /// KIR2DS3 /// KIR2DS4 /// KIR3DL3 /// KIR3DL3 /// KIR3DS1 (11738374_at) / Fold change /veh KIR2DL2 /// KIR2DL4 /// KIR2DL5A /// KIR2DL5B /// KIR2DS1 /// KIR2DS2 /// KIR2DS3 /// KIR2DS4 /// KIR3DL3 /// KIR3DL3 /// KIR3DS1 (11738374_at) / RFU C1QL1 (11718748_at) / Fold change /veh C1QL1 (11718748_at) / RFU TMPRSS4 (11747572_a_at) / Fold change /veh TMPRSS4 (11747572_a_at) / RFU HAMP (11756126_x_at) / Fold change /veh HAMP (11756126_x_at) / RFU RNFT2 (11725882_a_at) / Fold change /veh RNFT2 (11725882_a_at) / RFU NR4A2 (11747474_a_at) / Fold change /veh NR4A2 (11747474_a_at) / RFU ABCC12 (11746883_a_at) / Fold change /veh ABCC12 (11746883_a_at) / RFU TMEM136 (11760407_x_at) / Fold change /veh TMEM136 (11760407_x_at) / RFU CLDN22 /// WWC2 (11732394_at) / Fold change /veh CLDN22 /// WWC2 (11732394_at) / RFU HLA-DPB1 (11760878_x_at) / Fold change /veh HLA-DPB1 (11760878_x_at) / RFU SPINT1 (11716480_a_at) / Fold change /veh SPINT1 (11716480_a_at) / RFU GAP43 (11754022_s_at) / Fold change /veh GAP43 (11754022_s_at) / RFU A4GNT (11735810_at) / Fold change /veh A4GNT (11735810_at) / RFU PRB3 (11715151_x_at) / Fold change /veh PRB3 (11715151_x_at) / RFU TUBB4B (11761932_at) / Fold change /veh TUBB4B (11761932_at) / RFU CAPN14 (11732068_a_at) / Fold change /veh CAPN14 (11732068_a_at) / RFU TMCC2 (11721928_a_at) / Fold change /veh TMCC2 (11721928_a_at) / RFU IRGQ (11745062_a_at) / Fold change /veh IRGQ (11745062_a_at) / RFU FAM174B (11720279_a_at) / Fold change /veh FAM174B (11720279_a_at) / RFU TMPRSS4 (11748680_a_at) / Fold change /veh TMPRSS4 (11748680_a_at) / RFU FAM212B (11763350_a_at) / Fold change /veh FAM212B (11763350_a_at) / RFU PLEKHG5 (11743358_a_at) / Fold change /veh PLEKHG5 (11743358_a_at) / RFU ZSCAN30 (11745921_a_at) / Fold change /veh ZSCAN30 (11745921_a_at) / RFU CMKLR1 (11741424_a_at) / Fold change /veh CMKLR1 (11741424_a_at) / RFU LOC101060620 /// MAPK8IP1 (11723275_at) / Fold change /veh LOC101060620 /// MAPK8IP1 (11723275_at) / RFU SPTSSB (11747773_x_at) / Fold change /veh SPTSSB (11747773_x_at) / RFU PRSS12 (11739890_at) / Fold change /veh PRSS12 (11739890_at) / RFU BIN1 (11741810_x_at) / Fold change /veh BIN1 (11741810_x_at) / RFU WNT11 (11732464_a_at) / Fold change /veh WNT11 (11732464_a_at) / RFU C10orf10 (11716521_a_at) / Fold change /veh C10orf10 (11716521_a_at) / RFU C5orf56 (11738089_at) / Fold change /veh C5orf56 (11738089_at) / RFU CYB561 (11721691_x_at) / Fold change /veh CYB561 (11721691_x_at) / RFU ANKRD19P (11752326_a_at) / Fold change /veh ANKRD19P (11752326_a_at) / RFU OR2T12 /// OR2T33 /// OR2T8 (11738714_s_at) / Fold change /veh OR2T12 /// OR2T33 /// OR2T8 (11738714_s_at) / RFU VCAN (11748164_a_at) / Fold change /veh VCAN (11748164_a_at) / RFU JSRP1 (11732532_at) / Fold change /veh JSRP1 (11732532_at) / RFU KRTAP10-11 (11738290_x_at) / Fold change /veh KRTAP10-11 (11738290_x_at) / RFU MYO3A (11730013_a_at) / Fold change /veh MYO3A (11730013_a_at) / RFU EBF3 (11725865_a_at) / Fold change /veh EBF3 (11725865_a_at) / RFU CAMK2N1 (11719241_x_at) / Fold change /veh CAMK2N1 (11719241_x_at) / RFU C5orf56 (11738088_a_at) / Fold change /veh C5orf56 (11738088_a_at) / RFU OLFML3 (11715873_a_at) / Fold change /veh OLFML3 (11715873_a_at) / RFU LOC100653217 /// NTM (11731650_a_at) / Fold change /veh LOC100653217 /// NTM (11731650_a_at) / RFU MAPK11 (11762145_a_at) / Fold change /veh MAPK11 (11762145_a_at) / RFU FIZ1 (11724087_x_at) / Fold change /veh FIZ1 (11724087_x_at) / RFU OASL (11726364_x_at) / Fold change /veh OASL (11726364_x_at) / RFU SOX15 (11748057_x_at) / Fold change /veh SOX15 (11748057_x_at) / RFU CD79A (11719716_a_at) / Fold change /veh CD79A (11719716_a_at) / RFU HIST1H1D (11736915_at) / Fold change /veh HIST1H1D (11736915_at) / RFU CASKIN2 (11723855_a_at) / Fold change /veh CASKIN2 (11723855_a_at) / RFU LOC730098 (11760151_x_at) / Fold change /veh LOC730098 (11760151_x_at) / RFU OR4N2 (11742367_at) / Fold change /veh OR4N2 (11742367_at) / RFU PRRT2 (11749266_a_at) / Fold change /veh PRRT2 (11749266_a_at) / RFU SNX32 (11753110_a_at) / Fold change /veh SNX32 (11753110_a_at) / RFU CDHR5 (11726645_a_at) / Fold change /veh CDHR5 (11726645_a_at) / RFU RCAN1 (11760418_a_at) / Fold change /veh RCAN1 (11760418_a_at) / RFU FAM167A (11723789_a_at) / Fold change /veh FAM167A (11723789_a_at) / RFU FAM26E (11764081_at) / Fold change /veh FAM26E (11764081_at) / RFU ISYNA1 (11749810_s_at) / Fold change /veh ISYNA1 (11749810_s_at) / RFU ACY1 (11761880_at) / Fold change /veh ACY1 (11761880_at) / RFU 11764098_at / Fold change /veh 11764098_at / RFU SAMD14 (11745864_x_at) / Fold change /veh SAMD14 (11745864_x_at) / RFU NPB (11741838_a_at) / Fold change /veh NPB (11741838_a_at) / RFU TMPRSS6 (11731388_a_at) / Fold change /veh TMPRSS6 (11731388_a_at) / RFU KRTAP10-2 (11738614_at) / Fold change /veh KRTAP10-2 (11738614_at) / RFU ARHGAP8 /// PRR5-ARHGAP8 (11727945_x_at) / Fold change /veh ARHGAP8 /// PRR5-ARHGAP8 (11727945_x_at) / RFU KRTAP5-7 /// NADSYN1 (11734609_at) / Fold change /veh KRTAP5-7 /// NADSYN1 (11734609_at) / RFU RASL12 (11751679_a_at) / Fold change /veh RASL12 (11751679_a_at) / RFU CDKN2B (11736163_a_at) / Fold change /veh CDKN2B (11736163_a_at) / RFU PRF1 (11729649_at) / Fold change /veh PRF1 (11729649_at) / RFU, ZNF638 /// ZNF638-IT1 / Fold change vs veh, ZNF638 /// ZNF638-IT1 / RFU, PANK3 / Fold change vs veh, PANK3 / RFU, SH3YL1 / Fold change vs veh, SH3YL1 / RFU, ZEB2 / Fold change vs veh, ZEB2 / RFU, NRIP1 / Fold change vs veh, NRIP1 / RFU, PTTG1IP / Fold change vs veh, PTTG1IP / RFU, CAPN2 / Fold change vs veh, CAPN2 / RFU, MED14 / Fold change vs veh, MED14 / RFU, SNORA58 / Fold change vs veh, SNORA58 / RFU, C1orf63 / Fold change vs veh, C1orf63 / RFU, LRRFIP1 / Fold change vs veh, LRRFIP1 / RFU, NDUFAF7 / Fold change vs veh, NDUFAF7 / RFU, SLC12A2 / Fold change vs veh, SLC12A2 / RFU, IBTK / Fold change vs veh, IBTK / RFU, ESF1 / Fold change vs veh, ESF1 / Fold change vs veh, TMEM50B / RFU, TAOK1 / Fold change vs veh, TAOK1 / RFU, ACBD3 / Fold change vs veh, ACBD3 / RFU, TMA16 / Fold change vs veh, TMA16 / RFU, RWDD3 / Fold change vs veh, RWDD3 / RFU, BCAT1 / Fold change vs veh, BCAT1 / RFU, EDEM3 / Fold change vs veh, EDEM3 / RFU, TMEM33 / Fold change vs veh, TMEM33 / RFU, WDR75 / Fold change vs veh, WDR75 / RFU, AHCTF1 / Fold change vs veh, AHCTF1 / RFU, TFRC / Fold change vs veh, TFRC / RFU, ZDHHC17 / Fold change vs veh, ZDHHC17 / RFU, NOM1 / Fold change vs veh, NOM1 / RFU, ARL8B / Fold change vs veh, ARL8B / RFU, ZBTB11 / Fold change vs veh, ZBTB11 / RFU, TAMM41 / Fold change vs veh, TAMM41 / RFU, KIAA1704 /// LOC100996395 / Fold change vs veh, KIAA1704 /// LOC100996395 / RFU, ING1 / Fold change vs veh, ING1 / RFU, TRMT61B / Fold change vs veh, TRMT61B / RFU, FUBP3 / Fold change vs veh, FUBP3 / RFU, TP53 / Fold change vs veh, TP53 / RFU, TNKS2 / Fold change vs veh, TNKS2 / RFU, ZFP14 / Fold change vs veh, ZFP14 / RFU, ACTR2 / Fold change vs veh, ACTR2 / RFU, PPP3R1 / Fold change vs veh, PPP3R1 / RFU, PIK3R1 / Fold change vs veh, PIK3R1 / RFU, HNRNPA1 / Fold change vs veh, HNRNPA1 / RFU, RNF170 / Fold change vs veh, RNF170 / RFU, ZNF28 / Fold change vs veh, ZNF28 / RFU, RNGTT / Fold change vs veh, RNGTT / RFU, OGT / Fold change vs veh, OGT / RFU, BRD1 / Fold change vs veh, BRD1 / RFU, MARS / Fold change vs veh, MARS / RFU, ZNF655 / Fold change vs veh, ZNF655 / RFU, FAHD1 / Fold change vs veh, FAHD1 / RFU, BDP1 / Fold change vs veh, BDP1 / RFU, LRRCC1 / Fold change vs veh, LRRCC1 / RFU, ARID1A / Fold change vs veh, ARID1A / RFU, ZNF146 / Fold change vs veh, ZNF146 / RFU, ZNF330 / Fold change vs veh, ZNF330 / RFU, GPN3 / Fold change vs veh, GPN3 / RFU, C9orf123 / Fold change vs veh, C9orf123 / RFU, N4BP2L2 / Fold change vs veh, N4BP2L2 / RFU, ARFIP1 / Fold change vs veh, ARFIP1 / RFU, FAM179B / Fold change vs veh, FAM179B / RFU, BCL10 / Fold change vs veh, BCL10 / RFU, UHRF1BP1L / Fold change vs veh, UHRF1BP1L / RFU, BET1 / Fold change vs veh, BET1 / RFU, CNOT2 / Fold change vs veh, CNOT2 / RFU, ZNF268 / Fold change vs veh, ZNF268 / Fold change vs veh, ZNF507 / RFU, DGCR2 / Fold change vs veh, DGCR2 / RFU, WDSUB1 / Fold change vs veh, WDSUB1 / Fold change vs veh, HSP90B1 /// MIR3652 / RFU, ADSS / Fold change vs veh, ADSS / RFU, GK / Fold change vs veh, GK / RFU, ZNF148 / Fold change vs veh, ZNF148 / RFU, TAF9 / Fold change vs veh, TAF9 / RFU, SLC1A5 / Fold change vs veh, SLC1A5 / RFU, SLMO2 / Fold change vs veh, SLMO2 / RFU, ABCC4 / Fold change vs veh, ABCC4 / RFU, LOC101060439 /// RAP1B / Fold change vs veh, LOC101060439 /// RAP1B / RFU, RFX7 / Fold change vs veh, RFX7 / RFU, GTPBP10 / Fold change vs veh, GTPBP10 / RFU, CNEP1R1 / Fold change vs veh, CNEP1R1 / RFU, BIVM-ERCC5 /// ERCC5 / Fold change vs veh, BIVM-ERCC5 /// ERCC5 / RFU, ILF3 / Fold change vs veh, ILF3 / RFU 11762660_at / Fold change /veh 11762660_at / RFU VCAN (11757783_s_at) / Fold change /veh VCAN (11757783_s_at) / RFU DDX43 (11728927_at) / Fold change /veh DDX43 (11728927_at) / RFU KRT8 (11758188_x_at) / Fold change /veh KRT8 (11758188_x_at) / RFU NKD1 (11759106_at) / Fold change /veh NKD1 (11759106_at) / RFU SRD5A1 (11742802_a_at) / Fold change /veh SRD5A1 (11742802_a_at) / RFU TPSAB1 /// TPSB2 (11721975_s_at) / Fold change /veh TPSAB1 /// TPSB2 (11721975_s_at) / RFU GSTM3 (11746129_a_at) / Fold change /veh GSTM3 (11746129_a_at) / RFU IL23R (11737362_x_at) / Fold change /veh IL23R (11737362_x_at) / RFU TMEM51 (11727254_a_at) / Fold change /veh TMEM51 (11727254_a_at) / RFU PIWIL2 (11732686_x_at) / Fold change /veh PIWIL2 (11732686_x_at) / RFU ORM1 (11744905_x_at) / Fold change /veh ORM1 (11744905_x_at) / RFU CCDC152 (11743942_at) / Fold change /veh CCDC152 (11743942_at) / RFU ECM1 (11717891_a_at) / Fold change /veh ECM1 (11717891_a_at) / RFU IL23R (11748794_a_at) / Fold change /veh IL23R (11748794_a_at) / RFU TNFAIP8L3 (11732012_x_at) / Fold change /veh TNFAIP8L3 (11732012_x_at) / RFU MBOAT4 (11741988_at) / Fold change /veh MBOAT4 (11741988_at) / RFU 11764193_at / Fold change /veh 11764193_at / RFU TMEM53 (11763286_at) / Fold change /veh TMEM53 (11763286_at) / RFU MAGEB2 (11727129_at) / Fold change /veh MAGEB2 (11727129_at) / RFU TMEM200A (11744735_a_at) / Fold change /veh TMEM200A (11744735_a_at) / RFU CCDC152 (11751479_a_at) / Fold change /veh CCDC152 (11751479_a_at) / RFU FAM211A (11726209_a_at) / Fold change /veh FAM211A (11726209_a_at) / RFU RGS16 (11746705_a_at) / Fold change /veh RGS16 (11746705_a_at) / RFU VCAN (11755009_s_at) / Fold change /veh VCAN (11755009_s_at) / RFU RHOB (11743442_s_at) / Fold change /veh RHOB (11743442_s_at) / RFU RGS16 (11720943_a_at) / Fold change /veh RGS16 (11720943_a_at) / RFU RGS16 (11720944_at) / Fold change /veh RGS16 (11720944_at) / RFU, VPS4B / Fold change vs veh, VPS4B / RFU, CREB1 / Fold change vs veh, CREB1 / RFU, DNAJC13 / Fold change vs veh, DNAJC13 / RFU, GNAQ / Fold change vs veh, GNAQ / RFU, CDK5R1 / Fold change vs veh, CDK5R1 / RFU, ZRANB3 / Fold change vs veh, ZRANB3 / RFU, CUL4A / Fold change vs veh, CUL4A / RFU, CCNY / Fold change vs veh, CCNY / RFU, UFL1 / Fold change vs veh, UFL1 / RFU, COG3 / Fold change vs veh, COG3 / RFU, DIAPH2 / Fold change vs veh, DIAPH2 / RFU, SKA2 / Fold change vs veh, SKA2 / RFU, AFF3 / Fold change vs veh, AFF3 / RFU, LMF1 / Fold change vs veh, LMF1 / RFU, IPO11 / Fold change vs veh, IPO11 / RFU, DFFB / Fold change vs veh, DFFB / RFU, FOXP1 / Fold change vs veh, FOXP1 / RFU, CARD8 / Fold change vs veh, CARD8 / RFU, STRN3 / Fold change vs veh, STRN3 / RFU, ADK / Fold change vs veh, ADK / RFU, RASSF2 / Fold change vs veh, RASSF2 / RFU, WIPF1 / Fold change vs veh, WIPF1 / RFU, LARP1B / Fold change vs veh, LARP1B / RFU, RASA1 / Fold change vs veh, RASA1 / RFU, RB1 / Fold change vs veh, RB1 / RFU, PPFIA1 / Fold change vs veh, PPFIA1 / RFU, MAT2A / Fold change vs veh, MAT2A / RFU, CCT5 / Fold change vs veh, CCT5 / RFU, WDR92 / Fold change vs veh, WDR92 / RFU, CUX1 / Fold change vs veh, CUX1 / RFU, TTC7A / Fold change vs veh, TTC7A / RFU, TMEM135 / Fold change vs veh, TMEM135 / RFU, DEPTOR / Fold change vs veh, DEPTOR / RFU, CPM / Fold change vs veh, CPM / RFU, DNAJB6 / Fold change vs veh, DNAJB6 / RFU, CACNA2D3 / Fold change vs veh, CACNA2D3 / RFU, DTX4 / Fold change vs veh, DTX4 / RFU, TFCP2 / Fold change vs veh, TFCP2 / RFU, GMCL1 /// GMCL1P1 / Fold change vs veh, GMCL1 /// GMCL1P1 / RFU, AEBP2 / Fold change vs veh, AEBP2 / RFU, SNHG1 /// SNORD22 /// SNORD25 /// SNORD26 /// SNORD27 /// SNORD28 /// SNORD29 /// SNORD31 / Fold change vs veh, SNHG1 /// SNORD22 /// SNORD25 /// SNORD26 /// SNORD27 /// SNORD28 /// SNORD29 /// SNORD31 / Fold change (Aza/veh), C12orf56 (ProbeSet 11735607_a_at) / Fold change (ACY-1035/veh), C12orf56 (ProbeSet 11735607_a_at) / Fold change (Aza/veh), FGFR1OP (ProbeSet 11751329_s_at) / Fold change (ACY-1035/veh), FGFR1OP (ProbeSet 11751329_s_at) / Fold change (Aza/veh), VPS36 (ProbeSet 11739960_a_at) / Fold change (ACY-1035/veh), VPS36 (ProbeSet 11739960_a_at) / RFU SYPL1 (11715823_x_at) / Fold change /veh SYPL1 (11715823_x_at) / RFU IGFBP7 (11715501_s_at) / Fold change /veh IGFBP7 (11715501_s_at) / RFU REEP3 (11722064_at) / Fold change /veh REEP3 (11722064_at) / RFU IGLL1 (11728026_x_at) / Fold change /veh IGLL1 (11728026_x_at): dose or concentration left out as unconfirmed
# Details: MV-4-11 cells, 48 hours
smiles,measurement,value
Nc1ccc(-c2cccs2)cc1NC(=O)c1ccc2c(c1)cc(C1CC1)n2CCN1CCOCC1 [ACY-1035],Fold change /veh CNN1 (11734310_a_at),1.19

# Source: article PMC5218480 (PLoS ONE, 2017)
